Test results taken from ChEMBL document CHEMBL1697821, “Development of a phospholipidosis database and predictive quantitative structure-activity relationship (QSAR) models” (Toxicol Mech Methods, 2008).

system: Phospholipidosis; assay: Literature-mined public compounds from Kruhlak et al phospholipidosis modelling dataset

| SMILES | Phospholipidosis |
| --- | --- |
| CNS(=O)(=O)Cc1ccc2[nH]cc(CCN(C)C)c2c1 | Negative: confirmed by electron microscopy |
| CCN(CC)CCSC(=O)C(c1ccccc1)c1ccccc1 | Negative: based on the absence of positive reported data from WMDD |
| COc1nccnc1NS(=O)(=O)c1ccc(N)cc1 | Negative: based on the absence of positive reported data from WMDD |
| CCOC(=O)[C@H](CCc1ccccc1)N[C@@H](C)C(=O)N1Cc2ccccc2C[C@H]1C(=O)O | Negative: based on the absence of positive reported data from WMDD |
| OC(CN1CCCCC1)c1ccc(C=C2c3ccccc3-c3ccccc32)cc1 (configuration not stated) | Positive: strong inducer confirmed by electron microscopy |
| CCCC[C@@H]1CC(=O)[C@]2(O)O[C@@H]3[C@@H](NC)[C@@H](O)[C@@H](NC)[C@H](O)[C@H]3O[C@@H]2O1.O=S(=O)(O)O | Positive: strong inducer confirmed by electron microscopy |
| CN1CCN(C2=Nc3cc(Cl)ccc3N(C)n3cccc32)CC1 | Positive: strong inducer confirmed by electron microscopy |
| CC(=O)Nc1ccc(O)cc1 [ACETAMINOPHEN] | Negative: confirmed by electron microscopy |
| CC(=O)c1ccc2c(c1)N(CCCN1CCN(CCO)CC1)c1ccccc1S2 [ACETOPHENAZINE] | Negative: based on the absence of positive reported data from WMDD |
| CC(=O)Nc1c(I)cc(I)c(C(=O)O)c1I [ACETRIZOIC ACID] | Negative: based on the absence of positive reported data from WMDD |
| Nc1ncnc2nc[nH]c12 [ADENINE] | Negative: based on the absence of positive reported data from WMDD |
| Nc1ncnc2c1ncn2[C@@H]1O[C@H](CO)[C@@H](O)[C@H]1O [ADENOSINE] | Negative: based on the absence of positive reported data from WMDD |
| CCCSc1ccc2nc(NC(=O)OC)[nH]c2c1 [ALBENDAZOLE] | Negative: based on the absence of positive reported data from WMDD |
| C=CCN1C(=O)C(CC(C)C)NC1=S (configuration not stated) [ALBUTOIN] | Negative: based on the absence of positive reported data from WMDD |
| Oc1ncnc2[nH]ncc12 [ALLOPURINOL] | Positive: weak inducer based on presence of foamy macrophages and cytoplasmic vacuolations |
| C=CC[C@]1(O)CC[C@H]2[C@@H]3CCC4=CCCC[C@@H]4[C@H]3CC[C@@]21C [ALLYLESTRENOL] | Negative: based on the absence of positive reported data from WMDD |
| NC12CC3CC(CC(C3)C1)C2 [AMANTADINE] | Positive: strong inducer confirmed by electron microscopy |
| N=C(N)N/N=C1C=C/C(=N\NC(N)=S)C=C\1 [AMBAZONE] | Negative: based on the absence of positive reported data from WMDD |
| Nc1c(Br)cc(Br)cc1CN[C@H]1CC[C@H](O)CC1 [AMBROXOL] | Positive: weak inducer based on presence of foamy macrophages and cytoplasmic vacuolations |

| SMILES | Phospholipidosis |
| --- | --- |
| NCC[C@H](O)C(=O)N[C@@H]1C[C@H](N)[C@@H](O[C@H]2O[C@H](CN)[C@@H](O)[C@H](O)[C@H]2O)[C@H](O)[C@H]1O[C@H]1O[C@H](CO)[C@@H](O)[C@H](N)[C@H]1O [AMIKACIN] | Positive: strong inducer confirmed by electron microscopy |
| CCC1(c2ccc(N)cc2)CCC(=O)NC1=O (configuration not stated) [AMINOGLUTETHIMIDE] | Negative: based on the absence of positive reported data from WMDD |
| Nc1nc(N)c2nc(CNc3ccc(C(=O)N[C@@H](CCC(=O)O)C(=O)O)cc3)cnc2n1 [AMINOPTERIN] | Negative: based on the absence of positive reported data from WMDD |
| CCCCc1oc2ccccc2c1C(=O)c1cc(I)c(OCCN(CC)CC)c(I)c1 [AMIODARONE] | Positive: strong inducer confirmed by electron microscopy |
| CN(C)CCC=C1c2ccccc2CCc2ccccc21 [AMITRIPTYLINE] | Positive: strong inducer confirmed by electron microscopy |
| CC1(C)S[C@@H]2[C@H](NC(=O)[C@H](N)c3ccc(O)cc3)C(=O)N2[C@H]1C(=O)O [AMOXICILLIN] | Negative: based on the absence of positive reported data from WMDD |
| CC(N)Cc1ccccc1 (configuration not stated) [AMPHETAMINE] | Negative: based on the absence of positive reported data from WMDD |
| N=c1ccn2c(n1)O[C@H]1[C@H](O)[C@@H](CO)O[C@H]12 [ANCITABINE] | Negative: based on the absence of positive reported data from WMDD |
| C[C@]12CC[C@H]3[C@@H](CC=C4C[C@@H](O)CC[C@@]43C)[C@@H]1CC[C@@H]2O [ANDROSTENEDIOL] | Negative: based on the absence of positive reported data from WMDD |
| CCOC(=O)C1(c2ccccc2)CCN(CCc2ccc(N)cc2)CC1 [ANILERIDINE] | Negative: based on the absence of positive reported data from WMDD |
| CCCC(CCC)C(=O)O[C@H]1C[C@H]2CC[C@@H](C1)[N+]2(C)C.[Br-] [ANISOTROPINE METHYLBROMIDE] | Negative: based on the absence of positive reported data from WMDD |
| c1ccc(CN(CC2=NCCN2)c2ccccc2)cc1 [ANTAZOLINE] | Negative: based on the absence of positive reported data from WMDD |
| CCCC1C(=O)N2C(N(C)C)=Nc3ccc(C)cc3N2C1=O (configuration not stated) [APAZONE] | Negative: based on the absence of positive reported data from WMDD |
| CN1[C@@H]2CC[C@H]1C[C@@H](OC(=O)C(CO)c1ccccc1)C2 (some centres not stated) [ATROPINE] | Positive: weak inducer based on presence of foamy macrophages and cytoplasmic vacuolations |
| CN(C)CCCN(C)[C@H]1CC[C@H]2[C@@H]3CC=C4C[C@@H](O)CC[C@]4(C)[C@H]3CC[C@]12C [AZACOSTEROL] | Positive: strong inducer confirmed by electron microscopy |
| CC(=O)OC[C@H]1O[C@@H](n2ncc(=O)[nH]c2=O)[C@H](OC(C)=O)[C@@H]1OC(C)=O [AZARIBINE] | Negative: based on the absence of positive reported data from WMDD |
| CN1CCN(CCCCN2C(=O)CN(/N=C/c3ccc(-c4ccc(Cl)cc4)o3)C2=O)CC1.Cl.Cl [AZIMILIDE DIHYDROCHLORIDE] | Positive: weak inducer based on presence of foamy macrophages and cytoplasmic vacuolations |
| CC[C@H]1OC(=O)[C@H](C)[C@@H](O[C@H]2C[C@@](C)(OC)[C@@H](O)[C@H](C)O2)[C@H](C)[C@@H](O[C@@H]2O[C@H](C)C[C@H](N(C)C)[C@H]2O)[C@](C)(O)C[C@@H](C)CN(C)[C@H](C)[C@@H](O)[C@]1(C)O [AZITHROMYCIN] | Positive: weak inducer based on presence of foamy macrophages and cytoplasmic vacuolations |
| CCC1(CC)C(=O)NC(=O)NC1=O [BARBITAL] | Negative: based on the absence of positive reported data from WMDD |

| SMILES | Phospholipidosis |
| --- | --- |
| NC[C@H]1O[C@H](O[C@H]2[C@H](O)[C@@H](O[C@H]3O[C@H](CO)[C@@H](O)[C@H](N)[C@H]3O)[C@H](N)C[C@@H]2N)[C@H](N)[C@@H](O)[C@@H]1O [BEKANAMYCIN] | Negative: based on the absence of positive reported data from WMDD |
| NS(=O)(=O)c1cc2c(cc1C(F)(F)F)NC(Cc1ccccc1)NS2(=O)=O (configuration not stated) [BENDROFLUMETHIAZIDE] | Negative: based on the absence of positive reported data from WMDD |
| CC(=O)Nc1ccc(OC(=O)c2ccccc2OC(C)=O)cc1 [BENORILATE] | Negative: based on the absence of positive reported data from WMDD |
| NC(=O)c1ccccc1 [BENZAMIDE] | Positive: weak inducer based on presence of foamy macrophages and cytoplasmic vacuolations |
| CCN(CC)C(=O)C1CN2CCc3cc(OC)c(OC)cc3C2CC1OC(C)=O (configuration not stated) [BENZQUINAMIDE] | Negative: based on the absence of positive reported data from WMDD |
| CN1[C@@H]2CC[C@H]1C[C@@H](OC(c1ccccc1)c1ccccc1)C2 [BENZTROPINE] | Negative: based on the absence of positive reported data from WMDD |
| OCc1ccccc1 [BENZYL ALCOHOL] | Negative: based on the absence of positive reported data from WMDD |
| C[N+](C)(CCOc1ccccc1)Cc1ccccc1.O=C([O-])c1cc2ccccc2cc1O [BEPHENIUM HYDROXYNAPHTHOATE] | Negative: based on the absence of positive reported data from WMDD |
| CC(C)COCC(CN(Cc1ccccc1)c1ccccc1)N1CCCC1 (configuration not stated) [BEPRIDIL] | Negative: based on the absence of positive reported data from WMDD |
| CC1=C(/C=C/C(C)=C/C=C/C(C)=C/C=C/C=C(C)/C=C/C=C(C)/C=C/C2=C(C)CCCC2(C)C)C(C)(C)CCC1 [BETA CAROTENE] | Negative: based on the absence of positive reported data from WMDD |
| C[N+](C)(C)CC(=O)O [BETAINE] | Negative: based on the absence of positive reported data from WMDD |
| CC(=O)OCC(=O)[C@@]1(O)[C@@H](C)C[C@H]2[C@@H]3CCC4=CC(=O)C=C[C@]4(C)[C@@]3(F)[C@@H](O)C[C@@]21C [BETAMETHASONE ACETATE] | Negative: based on the absence of positive reported data from WMDD |
| CC(=O)OCC(=O)[C@@]1(OC(=O)C(C)C)[C@@H](C)C[C@H]2[C@@H]3CCC4=CC(=O)C=C[C@]4(C)[C@@]3(F)[C@@H](O)C[C@@]21C [BETAMETHASONE ACIBUTATE] | Negative: based on the absence of positive reported data from WMDD |
| CC(C)NCC(O)COc1ccc(CCOCC2CC2)cc1 (configuration not stated) [BETAXOLOL] | Negative: based on the absence of positive reported data from WMDD |
| C/N=C(\NC)NCc1ccccc1 [BETHANIDINE] | Negative: based on the absence of positive reported data from WMDD |
| C=CC1=C(C)/C(=C/c2[nH]c(Cc3[nH]c(/C=C4\NC(=O)C(C)=C4C=C)c(C)c3CCC(=O)O)c(CCC(=O)O)c2C)NC1=O [BILIRUBIN] | Positive: strong inducer confirmed by electron microscopy |
| CC(=O)Oc1ccc(C(c2ccc(OC(C)=O)cc2)c2ccccn2)cc1 [BISACODYL] | Negative: based on the absence of positive reported data from WMDD |
| FC(F)(F)c1ccc(-c2ccc(OCCN3CCCC3)cc2)cc1 [BOXIDINE] | Positive: strong inducer confirmed by electron microscopy |
| CC[N+](C)(C)Cc1ccccc1Br.Cc1ccc(S(=O)(=O)[O-])cc1 [BRETYLIUM TOSYLATE] | Negative: based on the absence of positive reported data from WMDD |
